Assay results: US20110288007A1 (priority 2008, published 2011)

Key:
Type in all cases: cell-based
Set-up in all cases: key: —: No effect (i.e. no significant difference between control [culture with no peptide] and culture with peptide); *: ~1 log effect (i.e. culture with peptide that's growth was ~1 log less than control); **: 1-2 log effect; ***: 2-4 log effect; ****: >4 log effect; “”: “Immediate effect” (i.e. loss of growth by at least 1 log compared to control immediately on addition of peptide [T = 0]
F. novicida U112 = tested on: F. novicida U112
F. tularensis LVS = tested on: F. tularensis LVS
[1] = tested on: Y. pseudotuberculosis IP32593
S. aureus ATCC29213 = conditions: peptide 102 μg/mL, reduction of number of bacteria vs control
B. thailandensis E264 = tested on: B. thailandensis E264
[2] = tested on: B. anthracis Vegetative UM23-Cl2
[3] = tested on: Y. pseudotuberculosis YPIII
B. cepacia J2540 = tested on: B. cepacia J2540

Sequence	Effect of peptides after 4 hours incubation with bacteria, F. novicida U112 (F. novicida U112)	Effect of peptides after 4 hours incubation with bacteria, F. tularensis LVS (F. tularensis LVS)	Effect of peptides after 4 hours incubation with bacteria, Y. pseudotuberculosis IP32593 [1]	Effect of peptides after 4 hours incubation with bacteria, S. aureus ATCC29213 (S. aureus ATCC29213)	Effect of peptides after 4 hours incubation with bacteria, B. thailandensis E264 (B. thailandensis E264)	Effect of peptides after 4 hours incubation with bacteria, B. anthracis Vegetative UM23-Cl2 [2]	Effect of peptides after 4 hours incubation with bacteria, Y. pseudotuberculosis YPIII [3]	Effect of peptides after 4 hours incubation with bacteria, B. cepacia J2540 (B. cepacia J2540)
GIGKFLHSAKKFGKAFVGEIMNS [Magainin II]	—	—	—	**** (>4 log effect)	—			
LLGDFFRKSKEKIGKEFKRIVQRIKDFLRNLVPRTES [LL-37]	—	—	—	—	—	—	—	—
